{
  "source": "patent US20170280728A1",
  "about": "“ANTIMICROBIAL COMPOSITIONS AND METHODS OF THEIR USE” (CMS TECHNOLOGY, INC.., priority 2014, published 2017)",
  "key": {"[1]": {"test_system": "General Bacteria (bacterial bird rinse)", "assay": "General Bacteria Assay (Vivione RAPID-B Total Plate Count)", "format": "cell-based"}, "[2]": {"test_system": "Salmonella enterica serovar Anatum (ATCC #9270)", "assay": "Salmonella Assay (liquid sanitizer exposure, log reduction)", "format": "cell-based"}},
  "data": [
    {"smiles": "O=C(O)CC(O)(CC(=O)O)C(=O)O", "note": "[citric acid @ 0.25%, citric acid]", "values": [
      {"measurement": "Average Live", "setting": "[1]; pH at inoculation 2.43, Baseline 408", "value": 75}
    ]},
    {"smiles": "O.O.O.O.O.O=S(=O)([O-])[O-].[Cu+2]", "note": "[Copper, Copper (II) sulfate pentahydrate]", "values": [
      {"measurement": "Treated Sample Reduction", "setting": "[2]; 0 ppm chlorine, 10 ppm copper, Solution pH 6.0, Control Sample Baseline 7.02 log, n = 3", "value": 3.83, "unit": "log"},
      {"measurement": "antimicrobial effect (in words)", "setting": "[2]; at lower ppm", "value": "limited antimicrobial effect"},
      {"measurement": "Average Live", "setting": "[1]; 5 ppm copper, pH at inoculation 5.68, Baseline 1562", "value": 1633},
      {"measurement": "Average Live", "setting": "[1]; 50 ppm copper, pH at inoculation 4.71, Baseline 1562", "value": 1666},
      {"measurement": "activity against bacteria (in words)", "setting": "[1]; at 5 ppm and 50 ppm concentrations", "value": "negligible activity"}
    ]}
  ]
}
